Source: PubChem BioAssay (NCI)
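In this assay, cells in 96-well plates receive the compound at five concentrations for 48 hours. Endpoints are linearly interpolated between the surrounding concentrations. GI50: concentration for 50% inhibition of growth. TGI: concentration producing complete growth inhibition.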

Experiments:
Assay in all cases: DTP human tumour cell line panel, 48 h
K-562 leukemia = system: K-562 leukemia
HOP-92 NSCLC = system: HOP-92 NSCLC
UO-31 renal = system: UO-31 renal
LOX IMVI melanoma = system: LOX IMVI melanoma
MDA-MB-231 breast = system: MDA-MB-231 breast
786-0 renal = system: 786-0 renal
SK-MEL-5 melanoma = system: SK-MEL-5 melanoma
SN12C renal = system: SN12C renal
COLO 205 colon = system: COLO 205 colon
SK-MEL-2 melanoma = system: SK-MEL-2 melanoma
SR leukemia = system: SR leukemia
SF-295 CNS = system: SF-295 CNS
MCF7 breast = system: MCF7 breast
T-47D breast = system: T-47D breast
CAKI-1 renal = system: CAKI-1 renal
HT29 colon = system: HT29 colon
U251 CNS = system: U251 CNS
DU-145 prostate = system: DU-145 prostate
CCRF-CEM leukemia = system: CCRF-CEM leukemia
ACHN renal = system: ACHN renal
A498 renal = system: A498 renal
KM12 colon = system: KM12 colon
SK-MEL-28 melanoma = system: SK-MEL-28 melanoma
UACC-257 melanoma = system: UACC-257 melanoma
OVCAR-5 ovarian = system: OVCAR-5 ovarian
NCI-H522 lung = system: NCI-H522 lung
HL-60(TB) leukemia = system: HL-60(TB) leukemia
NCI/ADR-RES ovarian = system: NCI/ADR-RES ovarian
TK-10 renal = system: TK-10 renal
HOP-62 NSCLC = system: HOP-62 NSCLC
SNB-19 CNS = system: SNB-19 CNS
SF-268 CNS = system: SF-268 CNS
SW-620 colon = system: SW-620 colon
HCT-116 colon = system: HCT-116 colon
MDA-MB-435 = system: MDA-MB-435
MOLT-4 leukemia = system: MOLT-4 leukemia
SK-OV-3 ovarian = system: SK-OV-3 ovarian
SNB-75 CNS = system: SNB-75 CNS
SF-539 CNS = system: SF-539 CNS
NCI-H226 lung = system: NCI-H226 lung
IGROV1 ovarian = system: IGROV1 ovarian
A549 NSCLC = system: A549 NSCLC
NCI-H23 lung = system: NCI-H23 lung
BT-549 breast = system: BT-549 breast
PC-3 prostate = system: PC-3 prostate
OVCAR-4 ovarian = system: OVCAR-4 ovarian
OVCAR-8 ovarian = system: OVCAR-8 ovarian
HS 578T breast = system: HS 578T breast
NCI-H460 lung = system: NCI-H460 lung
HCC-2998 colon = system: HCC-2998 colon
HCT-15 colon = system: HCT-15 colon
RXF 393 renal = system: RXF 393 renal
OVCAR-3 ovarian = system: OVCAR-3 ovarian
RPMI-8226 leukemia = system: RPMI-8226 leukemia

Q: With `CCOC(=O)c1ccccc1NC(c1ccccc1)c1ccc2cccnc2c1O` (stereo not drawn) as the molecule, how does the GI50 (K-562 leukemia) read?
A: 3.34 µM

Q: What about the TGI (K-562 leukemia) of the same molecule?
A: > 100 µM

Q: And the GI50 (HOP-92 NSCLC)?
A: 7.98 µM

Q: What about the TGI (HOP-92 NSCLC) of the same molecule?
A: > 100 µM

Q: And the GI50 (UO-31 renal)?
A: 2.03 µM

Q: And the TGI (UO-31 renal)?
A: > 100 µM

Q: And the GI50 (LOX IMVI melanoma)?
A: 2.45 µM

Q: What about the TGI (LOX IMVI melanoma) of the same molecule?
A: 11 µM

Q: What about the GI50 (MDA-MB-231 breast) of the same molecule?
A: 5.59 µM

Q: And the TGI (MDA-MB-231 breast)?
A: 72.7 µM

Q: And the GI50 (786-0 renal)?
A: 3.39 µM

Q: And the TGI (786-0 renal)?
A: > 100 µM

Q: What about the GI50 (SK-MEL-5 melanoma) of the same molecule?
A: 2.04 µM

Q: And the TGI (SK-MEL-5 melanoma)?
A: 6.74 µM

Q: What about the GI50 (SN12C renal) of the same molecule?
A: 3.83 µM

Q: And the TGI (SN12C renal)?
A: > 100 µM

Q: What about the GI50 (COLO 205 colon) of the same molecule?
A: 3.33 µM

Q: What about the TGI (COLO 205 colon) of the same molecule?
A: 24.1 µM

Q: And the GI50 (SK-MEL-2 melanoma)?
A: 3.74 µM

Q: What about the TGI (SK-MEL-2 melanoma) of the same molecule?
A: 45.1 µM

Q: What about the GI50 (SR leukemia) of the same molecule?
A: 2.02 µM

Q: What about the TGI (SR leukemia) of the same molecule?
A: 10.3 µM

Q: And the GI50 (SF-295 CNS)?
A: 3.24 µM

Q: And the TGI (SF-295 CNS)?
A: > 100 µM

Q: And the GI50 (MCF7 breast)?
A: 2.98 µM

Q: What about the TGI (MCF7 breast) of the same molecule?
A: 45 µM

Q: What about the GI50 (T-47D breast) of the same molecule?
A: 4.22 µM

Q: And the TGI (T-47D breast)?
A: > 100 µM

Q: And the GI50 (CAKI-1 renal)?
A: 3.05 µM

Q: And the TGI (CAKI-1 renal)?
A: > 100 µM

Q: What about the GI50 (HT29 colon) of the same molecule?
A: 4.58 µM

Q: And the TGI (HT29 colon)?
A: > 100 µM

Q: What about the GI50 (U251 CNS) of the same molecule?
A: 2.75 µM

Q: What about the TGI (U251 CNS) of the same molecule?
A: 16.5 µM

Q: And the GI50 (DU-145 prostate)?
A: 5.94 µM

Q: And the TGI (DU-145 prostate)?
A: > 100 µM

Q: And the GI50 (CCRF-CEM leukemia)?
A: 2.32 µM

Q: What about the TGI (CCRF-CEM leukemia) of the same molecule?
A: > 100 µM

Q: And the GI50 (ACHN renal)?
A: 3.07 µM

Q: What about the TGI (ACHN renal) of the same molecule?
A: > 100 µM

Q: What about the GI50 (A498 renal) of the same molecule?
A: 1.15 µM

Q: And the TGI (A498 renal)?
A: 8.05 µM

Q: And the GI50 (KM12 colon)?
A: 3.99 µM

Q: What about the TGI (KM12 colon) of the same molecule?
A: > 100 µM

Q: What about the GI50 (SK-MEL-28 melanoma) of the same molecule?
A: 3.19 µM

Q: What about the TGI (SK-MEL-28 melanoma) of the same molecule?
A: > 100 µM

Q: What about the GI50 (UACC-257 melanoma) of the same molecule?
A: 2.98 µM

Q: And the TGI (UACC-257 melanoma)?
A: 21.5 µM

Q: And the GI50 (OVCAR-5 ovarian)?
A: 8.64 µM

Q: And the TGI (OVCAR-5 ovarian)?
A: > 100 µM

Q: What about the GI50 (NCI-H522 lung) of the same molecule?
A: 3.36 µM

Q: What about the TGI (NCI-H522 lung) of the same molecule?
A: 11.6 µM

Q: What about the GI50 (HL-60(TB) leukemia) of the same molecule?
A: 1.97 µM

Q: What about the TGI (HL-60(TB) leukemia) of the same molecule?
A: 6.63 µM

Q: And the GI50 (NCI/ADR-RES ovarian)?
A: 2.78 µM

Q: And the TGI (NCI/ADR-RES ovarian)?
A: 21.4 µM

Q: And the GI50 (TK-10 renal)?
A: 5.52 µM

Q: And the TGI (TK-10 renal)?
A: > 100 µM

Q: And the GI50 (HOP-62 NSCLC)?
A: 3.31 µM

Q: And the TGI (HOP-62 NSCLC)?
A: > 100 µM

Q: And the GI50 (SNB-19 CNS)?
A: 2.83 µM

Q: What about the TGI (SNB-19 CNS) of the same molecule?
A: > 100 µM

Q: And the GI50 (SF-268 CNS)?
A: 3.14 µM

Q: What about the TGI (SF-268 CNS) of the same molecule?
A: 29 µM

Q: And the GI50 (SW-620 colon)?
A: 3.89 µM

Q: And the TGI (SW-620 colon)?
A: > 100 µM

Q: And the GI50 (HCT-116 colon)?
A: 3.41 µM

Q: And the TGI (HCT-116 colon)?
A: 80.1 µM

Q: What about the GI50 (MDA-MB-435) of the same molecule?
A: 5.41 µM

Q: What about the TGI (MDA-MB-435) of the same molecule?
A: 61.6 µM

Q: What about the GI50 (MOLT-4 leukemia) of the same molecule?
A: 2.54 µM

Q: And the TGI (MOLT-4 leukemia)?
A: > 100 µM

Q: What about the GI50 (SK-OV-3 ovarian) of the same molecule?
A: 3.64 µM

Q: And the TGI (SK-OV-3 ovarian)?
A: 56.4 µM

Q: What about the GI50 (SNB-75 CNS) of the same molecule?
A: 2.6 µM

Q: And the TGI (SNB-75 CNS)?
A: 89.8 µM

Q: And the GI50 (SF-539 CNS)?
A: 2.52 µM

Q: And the TGI (SF-539 CNS)?
A: 10.2 µM

Q: And the GI50 (NCI-H226 lung)?
A: 2.69 µM

Q: What about the TGI (NCI-H226 lung) of the same molecule?
A: 13.9 µM

Q: And the GI50 (IGROV1 ovarian)?
A: 4.01 µM

Q: And the TGI (IGROV1 ovarian)?
A: 24.1 µM

Q: What about the GI50 (A549 NSCLC) of the same molecule?
A: 3.3 µM

Q: And the TGI (A549 NSCLC)?
A: > 100 µM

Q: What about the GI50 (NCI-H23 lung) of the same molecule?
A: 4.22 µM

Q: And the TGI (NCI-H23 lung)?
A: > 100 µM

Q: What about the GI50 (BT-549 breast) of the same molecule?
A: 4.25 µM

Q: And the TGI (BT-549 breast)?
A: 16.7 µM

Q: What about the GI50 (PC-3 prostate) of the same molecule?
A: 5.13 µM

Q: What about the TGI (PC-3 prostate) of the same molecule?
A: > 100 µM

Q: And the GI50 (OVCAR-4 ovarian)?
A: 3.21 µM

Q: And the TGI (OVCAR-4 ovarian)?
A: > 100 µM

Q: What about the GI50 (OVCAR-8 ovarian) of the same molecule?
A: 3.31 µM

Q: What about the TGI (OVCAR-8 ovarian) of the same molecule?
A: 52.2 µM

Q: And the GI50 (HS 578T breast)?
A: 7.53 µM

Q: And the TGI (HS 578T breast)?
A: > 100 µM

Q: What about the GI50 (NCI-H460 lung) of the same molecule?
A: 2.82 µM

Q: What about the TGI (NCI-H460 lung) of the same molecule?
A: 78.4 µM

Q: And the GI50 (HCC-2998 colon)?
A: 5.77 µM

Q: What about the TGI (HCC-2998 colon) of the same molecule?
A: > 100 µM

Q: What about the GI50 (HCT-15 colon) of the same molecule?
A: 2.11 µM

Q: And the TGI (HCT-15 colon)?
A: 23.5 µM

Q: And the GI50 (RXF 393 renal)?
A: 3.11 µM

Q: And the TGI (RXF 393 renal)?
A: 23.2 µM

Q: And the GI50 (OVCAR-3 ovarian)?
A: 3.85 µM

Q: And the TGI (OVCAR-3 ovarian)?
A: 23.4 µM

Q: And the GI50 (RPMI-8226 leukemia)?
A: 3.06 µM

Q: And the TGI (RPMI-8226 leukemia)?
A: > 100 µM
